# Results taken from patent US10770169B2, “Method of providing a treatment to a subject based on a dynamic pathway map” (THE REGENTS OF THE UNIVERSITY OF CALIFORNIA, priority 2010, dated 2020).
# Where two headings read alike, the source gives them in different places.
# Tested on: panel of 55 breast cancer cell lines
# Experiment: Cell growth inhibition assay (Cell Titer Glo, 72 h, 9 doses; GI50, TGI, LC50)
# Format: cell-based, human
# Conditions: Homo sapiens, read-out: GI50 (converted)
# [1] = 600MPE cell line, censored GI50 values
# [2] = AU565, AU565 cell line, censored GI50 values
# [3] = BT-20, BT20 cell line, censored GI50 values
# [4] = BT-474, BT474 cell line, censored GI50 values
# [5] = BT-483, BT483 cell line, censored GI50 values
# [6] = BT-549, BT549 cell line, censored GI50 values
# [7] = CAMA-1, CAMA1 cell line, censored GI50 values
# [8] = HCC38, HCC38 cell line, censored GI50 values
# [9] = HCC70, HCC70 cell line, censored GI50 values
# [10] = HCC202, HCC202 cell line, censored GI50 values
# [11] = HCC1143, HCC1143 cell line, censored GI50 values
# [12] = HCC1187, HCC1187 cell line, censored GI50 values
# [13] = HCC1395, HCC1395 cell line, censored GI50 values
# [14] = HCC1419, HCC1419 cell line, censored GI50 values
# [15] = HCC1428, HCC1428 cell line, censored GI50 values
# [16] = HCC1500, HCC1500 cell line, censored GI50 values
# [17] = HCC1806, HCC1806 cell line, censored GI50 values
# [18] = HCC1937, HCC1937 cell line, censored GI50 values
# [19] = HCC1954, HCC1954 cell line, censored GI50 values
# [20] = HCC2185 cell line, censored GI50 values
# [21] = HCC3153 cell line, censored GI50 values
# [22] = MCF7, MCF7 cell line, censored GI50 values
# [23] = MDA-MB-134-VI, MDAMB134VI cell line, censored GI50 values
# [24] = MDA-MB-157, MDAMB157 cell line, censored GI50 values
# [25] = MDA-MB-175-VII, MDAMB175VII cell line, censored GI50 values
# [26] = MDA-MB-231, MDAMB231 cell line, censored GI50 values
# [27] = MDA-MB-361, MDAMB361 cell line, censored GI50 values
# [28] = MDA-MB-415, MDAMB415 cell line, censored GI50 values
# [29] = MDA-MB-436, MDAMB436 cell line, censored GI50 values
# [30] = MDA-MB-468, MDAMB468 cell line, censored GI50 values
# [31] = SK-BR-3, SKBR3 cell line, censored GI50 values
# [32] = SUM52PE, SUM52PE cell line, censored GI50 values
# [33] = SUM149PT, SUM149PT cell line, censored GI50 values
# [34] = SUM185PE, SUM185PE cell line, censored GI50 values
# [35] = SUM225CWN, SUM225CWN cell line, censored GI50 values
# [36] = SUM1315MO2, SUM1315MO2 cell line, censored GI50 values
# [37] = SUM-159-PT, SUM159PT cell line, censored GI50 values
# [38] = T47D, T47D cell line, censored GI50 values
# [39] = UACC-893, UACC893 cell line, censored GI50 values
# [40] = ZR-75-1, ZR751 cell line, censored GI50 values
smiles,measurement,setting,value
CNC(=O)c1cc(Oc2ccc(NC(=O)Nc3ccc(Cl)c(C(F)(F)F)c3)cc2)ccn1 [Sorafenib],GI50,[1],45.7 µM
same,GI50,[2],178 µM
same,GI50,"AU565, cell line AU565",178 µM
same,GI50,[3],63.1 µM
same,GI50,"BT-20, cell line BT20",63.1 µM
same,GI50,[4],100 µM
same,GI50,"BT-474, cell line BT474",100 µM
same,GI50,[5],11.7 µM
same,GI50,"BT-483, cell line BT483",11.7 µM
same,GI50,[6],120 µM
same,GI50,"BT-549, cell line BT549",120 µM
same,GI50,[7],95.5 µM
same,GI50,"CAMA-1, cell line CAMA1",95.5 µM
same,GI50,[8],87.1 µM
same,GI50,"HCC38, cell line HCC38",87.1 µM
same,GI50,[9],35.5 µM
same,GI50,"HCC70, cell line HCC70",35.5 µM
same,GI50,[10],72.4 µM
same,GI50,"HCC202, cell line HCC202",72.4 µM
same,GI50,[11],58.9 µM
same,GI50,"HCC1143, cell line HCC1143",58.9 µM
same,GI50,[12],32.4 µM
same,GI50,"HCC1187, cell line HCC1187",32.4 µM
same,GI50,[13],47.9 µM
same,GI50,"HCC1395, cell line HCC1395",47.9 µM
same,GI50,[14],417 µM
same,GI50,"HCC1419, cell line HCC1419",417 µM
same,GI50,[15],45.7 µM
same,GI50,"HCC1428, cell line HCC1428",45.7 µM
same,GI50,[16],178 µM
same,GI50,"HCC1500, cell line HCC1500",178 µM
same,GI50,[17],148 µM
same,GI50,"HCC1806, cell line HCC1806",148 µM
same,GI50,[18],513 µM
same,GI50,"HCC1937, cell line HCC1937",513 µM
same,GI50,[19],55 µM
same,GI50,"HCC1954, cell line HCC1954",55 µM
same,GI50,[20],14.8 µM
same,GI50,[21],120 µM
same,GI50,[22],64.6 µM
same,GI50,"MCF7, cell line MCF7",64.6 µM
same,GI50,[23],28.8 µM
same,GI50,[24],240 µM
same,GI50,[25],81.3 µM
same,GI50,[26],89.1 µM
same,GI50,[27],60.3 µM
same,GI50,[28],95.5 µM
same,GI50,[29],51.3 µM
same,GI50,[30],158 µM
same,GI50,[31],70.8 µM
same,GI50,[32],1.7 µM
same,GI50,[33],15.8 µM
same,GI50,[34],1.48 µM
same,GI50,[35],40.7 µM
same,GI50,[36],186 µM
same,GI50,[37],21.9 µM
same,GI50,[38],25.7 µM
same,GI50,[39],331 µM
same,GI50,[40],45.7 µM
same,GI50,cell line 600MPE,45.7 µM
same,GI50,cell line HCC2185,14.8 µM
same,GI50,cell line HCC3153,120 µM
CCN(CC)CCNC(=O)c1c(C)[nH]c(/C=C2\C(=O)Nc3ccc(F)cc32)c1C [Sunitinib Malate],GI50,[1],4.27 µM
same,GI50,[2],3.8 µM
same,GI50,"AU565, cell line AU565",3.8 µM
same,GI50,[3],16.6 µM
same,GI50,"BT-20, cell line BT20",16.6 µM
same,GI50,[4],17 µM
same,GI50,"BT-474, cell line BT474",17 µM
same,GI50,[5],18.6 µM
same,GI50,"BT-483, cell line BT483",18.6 µM
same,GI50,[6],5.13 µM
same,GI50,"BT-549, cell line BT549",5.13 µM
same,GI50,[7],8.71 µM
same,GI50,"CAMA-1, cell line CAMA1",8.71 µM
same,GI50,[8],5.75 µM
same,GI50,"HCC38, cell line HCC38",5.75 µM
same,GI50,[9],2.51 µM
same,GI50,"HCC70, cell line HCC70",2.51 µM
same,GI50,[10],9.33 µM
same,GI50,"HCC202, cell line HCC202",9.33 µM
same,GI50,[11],6.92 µM
same,GI50,"HCC1143, cell line HCC1143",6.92 µM
same,GI50,[12],5.01 µM
same,GI50,"HCC1187, cell line HCC1187",5.01 µM
same,GI50,[13],4.68 µM
same,GI50,"HCC1395, cell line HCC1395",4.68 µM
same,GI50,[14],17.8 µM
same,GI50,"HCC1419, cell line HCC1419",17.8 µM
same,GI50,[15],5.13 µM
same,GI50,"HCC1428, cell line HCC1428",5.13 µM
same,GI50,[16],6.46 µM
same,GI50,"HCC1500, cell line HCC1500",6.46 µM
same,GI50,[17],5.37 µM
same,GI50,"HCC1806, cell line HCC1806",5.37 µM
same,GI50,[18],6.92 µM
same,GI50,"HCC1937, cell line HCC1937",6.92 µM
same,GI50,[19],5.62 µM
same,GI50,"HCC1954, cell line HCC1954",5.62 µM
same,GI50,[20],20.4 µM
same,GI50,[21],11 µM
same,GI50,"LY2 cell line, censored GI50 values",6.46 µM
same,GI50,[22],5.89 µM
same,GI50,"MCF7, cell line MCF7",5.89 µM
same,GI50,[23],10.7 µM
same,GI50,[24],6.31 µM
same,GI50,[25],5.5 µM
same,GI50,[26],3.63 µM
same,GI50,[27],11.7 µM
same,GI50,[28],5.62 µM
same,GI50,[29],11.2 µM
same,GI50,"MDA-MB-453, MDAMB453 cell line, censored GI50 values",4.17 µM
same,GI50,[30],4.47 µM
same,GI50,[31],6.76 µM
same,GI50,[32],1.15 µM
same,GI50,[33],2.69 µM
same,GI50,[34],1.05 µM
same,GI50,[35],6.31 µM
same,GI50,[36],7.41 µM
same,GI50,[37],1.55 µM
same,GI50,[38],8.32 µM
same,GI50,[39],0.871 µM
same,GI50,[40],13.2 µM
same,GI50,"ZR-75B, ZR75B cell line, censored GI50 values",7.59 µM
same,GI50,cell line 600MPE,4.27 µM
same,GI50,cell line HCC2185,20.4 µM
same,GI50,cell line HCC3153,11 µM
same,GI50,cell line LY2,6.46 µM
